Read-outs that look alike come from different tables or passages of the source.
Key:
[1] = Extraction of process chemicals from saline: TNBP; conditions: 1% TNBP in saline
[2] = Extraction of process chemicals from saline: TWEEN 80; conditions: 1% TWEEN 80 in saline
[3] = Extraction of process chemicals from saline: TRITON X45; conditions: 1% TRITON X45 in saline
[4] = Extraction of process chemicals from saline: TRITON X114; conditions: 1% TRITON X114 in saline
[5] = Extraction of process chemicals from saline: TRITON X100; conditions: 1% TRITON X100 in saline
[6] = Extraction of process chemicals from saline: Nonoxynol; conditions: 1% Nonoxynol in saline; 5% extractant
[7] = Extraction of process chemicals from plasma: TNBP; conditions: 2% TNBP in plasma
Text: (§1) The results are in general agreement with those observed extracting from saline.

[8] = Extraction of process chemicals from plasma: TWEEN 80; conditions: 1% TWEEN 80 in plasma
Text: as §1

[9] = Extraction of process chemicals from plasma: TRITON X45; conditions: 1% TRITON X45 in plasma
Text: as §1

[10] = Extraction of process chemicals from plasma: TRITON X114; conditions: 1% TRITON X114 in plasma
Text: as §1

[11] = Extraction of process chemicals from plasma: TRITON X100; conditions: 1% TRITON X100 in plasma
Text: as §1

AHF [12] = test: Recovery of AHF procoagulant activity following extraction; type: biochemical; conditions: for AHF recovery: AHF concentrate or plasma; for AHF % Recovery / AHF Activity After: 5% extractant
AHF [13] = test: AHF retention after extraction of AHF concentrate with halogenated hydrocarbons; type: biochemical, human; conditions: 5% (w/v) halogenated hydrocarbon, 30 minutes, ambient
Description: (§2) An AHF concentrate prepared from human plasma was treated with 0.3% TNBP and either 1% "TRITON X-45" or 1% "TWEEN 80" to inactivate virus. Following treatment, the solution was extracted one time with 5% (w/v) of a halogenated hydrocarbon by mixing for a period of 30 minutes at ambient temperature. The quantity of residual AHF, TNBP and detergent present in the aqueous solution was measured and compared with the unextracted control.

[14] = Removal of TNBP from AHF concentrate with halogenated hydrocarbons; conditions: 0.3% TNBP; 5% (w/v) halogenated hydrocarbon, 30 minutes, ambient
Description: as §2

[15] = Removal of TRITON X-45 from AHF concentrate with halogenated hydrocarbons; conditions: 1% TRITON X-45; 5% (w/v) halogenated hydrocarbon, 30 minutes, ambient
Description: as §2

[16] = Removal of TWEEN 80 from AHF concentrate with halogenated hydrocarbons; conditions: 1% TWEEN 80; 5% (w/v) halogenated hydrocarbon, 30 minutes, ambient
Description: as §2

red blood cells = test: Red blood cell retention on extraction with FORANE; set-up: species or system human; conditions: 10% FORANE
[17] = Merocyanine removal from saline on extraction with FORANE; conditions: 10% FORANE
AHF [18] = test: AHF recovery after extraction of cryoprecipitate; type: biochemical; conditions: extracted two times, 10% FORANE or 10% FORANE and 5% heptanol; sterile filtered, lyophilized
[19] = Removal of TNBP from cryoprecipitate; conditions: extracted two times, 10% FORANE or 10% FORANE and 5% heptanol; lyophilized
[20] = Removal of TRITON X-45 from cryoprecipitate; conditions: extracted two times, 10% FORANE or 10% FORANE and 5% heptanol; lyophilized
AHF [21] = test: Protein functional activity after extraction of plasma: AHF; type: biochemical; conditions: 10% extractant, 30 minutes, ambient
Factor IX = test: Protein functional activity after extraction of plasma: Factor IX; type: biochemical; conditions: 10% extractant, 30 minutes, ambient
Description: (§3) Plasma was extracted with either 10% "FORANE" or 10% 2-octanol for 30 minutes at ambient temperature.

Antithrombin III = test: Protein functional activity after extraction of plasma: Antithrombin III; type: biochemical; conditions: 10% extractant, 30 minutes, ambient
Description: as §3

AHF [22] = test: AHF activity retained after depyrogenation extraction; type: biochemical; conditions: 10% (v/v) extractant, 30 minutes, 24° C.
Description: AHF concentrate containing 6.4 ng/ml of endotoxin was extracted by mechanically shaking with 10% (v/v) 2-octanol or "FORANE" for 30 minutes at 24° C. After separation of the extractant by centrifugation, the pyrogen level was determined by the Limulus Amebocyte Lysate assay with a sensitivity of 0.025 ng/ml of endotoxin. The effect of these treatments is shown below in Table XI. […] More than 90% of the original AHF activity was retained following the extraction.

AHF [23] = test: AHF retention after extraction of AHF concentrate with alcohols; type: biochemical, human; conditions: 0.3% TNBP and 1% TRITON X-45; 10% (w/v) alcohol, 30 minutes, ambient
[24] = Removal of TRITON X-45 from AHF concentrate with alcohols; conditions: 0.3% TNBP and 1% TRITON X-45; 10% (w/v) alcohol, 30 minutes, ambient
[25] = Aqueous solubility of alcohols; conditions: water
[26] = water
[27] = system: Vesicular stomatitis virus; test: microbe, parasite or virus in culture; type: cell-based

CCCCCO [1-pentanol]
Percent Extraction ([1]; 5% extractant): 99% | Percent Extraction ([2]; 5% extractant): 28-42% | Percent Extraction ([3]; 5% extractant): 97% | Percent Extraction ([4]; 5% extractant): 91% | Percent Extraction ([5]; 5% extractant): 92% | Percent Extraction [6]: 92% | Percent Extraction ([7]; 5% extractant): 98% | Percent Extraction ([8]; 5% extractant): 7% | Percent Extraction ([9]; 5% extractant): 80% | Percent Extraction ([10]; 5% extractant): 75% | Percent Extraction ([11]; 5% extractant): 65% | AHF recovery (AHF [12]): approximately 1% | AHF % Recovery (AHF [12]; AHF concentrate): 1% | AHF Activity After (AHF [12]; AHF concentrate): 0.02 units/mL | AHF % Recovery (AHF [12]; plasma): 1% | AHF Activity After (AHF [12]; plasma): 0.01 units/mL

FC(F)OC(Cl)C(F)(F)F (stereo not shown) [FORANE, 1-chloro-2,2,2-trifluoroethyl difluoromethyl ether]
Percent Extraction ([1]; 5% extractant): 99% | Percent Extraction ([1]; 20% extractant): 99% | Percent Extraction ([2]; 5% extractant): 85% | Percent Extraction ([2]; 20% extractant): 87% | Percent Extraction ([3]; 5% extractant): 99% | Percent Extraction ([3]; 20% extractant): 99% | Percent Extraction ([4]; 5% extractant): 99% | Percent Extraction ([4]; 20% extractant): 99% | Percent Extraction ([5]; 5% extractant): 99% | Percent Extraction ([5]; 20% extractant): 99% | Percent Extraction ([7]; 5% extractant): 94% | Percent Extraction ([7]; 20% extractant): 96% | Percent Extraction ([8]; 20% extractant): 66% | Percent Extraction ([9]; 5% extractant): 91% | Percent Extraction ([9]; 20% extractant): 99% | Percent Extraction ([10]; 5% extractant): 96% | Percent Extraction ([10]; 20% extractant): 96% | Percent Extraction ([11]; 5% extractant): 95% | Percent Extraction ([11]; 20% extractant): 96% | AHF recovery (AHF [12]): ~100% | AHF % Recovery (AHF [12]; AHF concentrate): 102% | AHF Activity After (AHF [12]; AHF concentrate): 2.69 units/mL | % Retention AHF (AHF [13]): 100% | Percent Removal TNBP [14]: 99% | Percent Removal TRITON X-45 [15]: 99% | Percent Removal TWEEN 80 [16]: 87% | Red Blood Cell Retention (red blood cells): 97% | Merocyanine % Removal [17]: 83% | AHF recovery (AHF [18]): 95% | Percent Removal TNBP [19]: 99.88% | Percent Removal TRITON X-45 [20]: 96% | % Retention AHF (AHF [21]): 98% | % Retention Factor IX (Factor IX): 99% | % Retention Antithrombin III (Antithrombin III): 100% | original AHF activity retained (AHF [22]): More than 90%

CC(C)CCO [isoamyl alcohol]
AHF (% Retention) (AHF [23]): 1% | TRITON X-45 (% Removal) [24]: 100% | Aqueous Solubility [25]: 2.0 g %

CCCCCCCCO [1-octanol]
AHF (% Retention) (AHF [23]): 96% | TRITON X-45 (% Removal) [24]: 100% | Aqueous Solubility [25]: 0.05 g %

FC1(F)C(F)(F)C(F)(F)C2(F)C(F)(F)C(F)(F)C(F)(F)C(F)(F)C2(F)C1(F)F (stereo not shown) [Perfluorodecalin]
% Retention AHF (AHF [13]): 107% | Percent Removal TNBP [14]: 14% | Percent Removal TRITON X-45 [15]: 0% | Percent Removal TWEEN 80 [16]: 0%

CCCCCCC(C)O (stereo not shown) [2-octanol]
Percent Extraction ([1]; 5% extractant): 99% | Percent Extraction ([2]; 5% extractant): 0-12% | Percent Extraction ([3]; 5% extractant): 83-96% | Percent Extraction ([4]; 5% extractant): 94% | Percent Extraction ([5]; 5% extractant): 60% | Percent Extraction [6]: 49% | Percent Extraction ([7]; 5% extractant): 98% | Percent Extraction ([8]; 5% extractant): 21% | Percent Extraction ([9]; 5% extractant): 62% | Percent Extraction ([10]; 5% extractant): 33% | Percent Extraction ([11]; 5% extractant): 19% | AHF recovery (AHF [12]): approximately 90% | AHF % Recovery (AHF [12]; AHF concentrate): 89% | AHF Activity After (AHF [12]; AHF concentrate): 2.35 units/mL | AHF % Recovery (AHF [12]; plasma): 91% | AHF Activity After (AHF [12]; plasma): 1.15 units/mL | AHF (% Retention) (AHF [23]): 93% | TRITON X-45 (% Removal) [24]: 100% | % Retention AHF (AHF [21]): 95% | % Retention Factor IX (Factor IX): 99% | % Retention Antithrombin III (Antithrombin III): 100% | original AHF activity retained (AHF [22]): More than 90% | Aqueous Solubility [25]: 0.05 g %

CCCCCCCO [heptanol]
AHF (% Retention) (AHF [23]): 98% | TRITON X-45 (% Removal) [24]: 100% | Aqueous Solubility [26]: 0.2 g %

FC(F)(Cl)C(F)(Cl)Cl [1,2,2-Trifluorotrichloroethane, 1,2,2-trifluorotrichloroethane]
% Retention AHF (AHF [13]): 98% | Percent Removal TNBP [14]: 93% | Percent Removal TRITON X-45 [15]: 8% | Percent Removal TWEEN 80 [16]: 3%

CCCCCCCCCCO [1-decanol]
AHF (% Retention) (AHF [23]): 100% | TRITON X-45 (% Removal) [24]: 100% | Aqueous Solubility [25]: < 0.05 g %

FC(F)OC(F)(F)C(F)Cl (stereo not shown) [Ethrane, 2-chloro-1,1,2-trifluoroethyl difluoromethyl ether]
% Retention AHF (AHF [13]): 100% | Percent Removal TNBP [14]: 99% | Percent Removal TRITON X-45 [15]: 99%

CCCCCCCCCO [1-nonanol]
AHF (% Retention) (AHF [23]): 100% | TRITON X-45 (% Removal) [24]: 100%

CCCCCCO [hexanol]
AHF (% Retention) (AHF [23]): 63% | TRITON X-45 (% Removal) [24]: 100%

CCCCN1C(=O)C(=CC=CC=C2Oc3ccccc3N2CCCS(=O)(=O)O)C(=O)N(CCCC)C1=S [merocyanine 540]
Final Virus Titer [27]: < -0.5 | Virus titer, Control (no light) [27]: 3.7 | log reduction at 40 µg/mL ([27]; Vesicular stomatitis virus, 1 h, read-out: Total Virus Kill): > 4.2

FC(F)(F)C(F)(F)C(F)(F)C(F)(F)C(F)(F)C(F)(F)F [Perfluorohexane]
% Retention AHF (AHF [13]): 98% | Percent Removal TNBP [14]: 27% | Percent Removal TRITON X-45 [15]: 0% | Percent Removal TWEEN 80 [16]: 0%

CCCCCO [amyl alcohol]
AHF (% Retention) (AHF [23]): 1% | TRITON X-45 (% Removal) [24]: 100% | Aqueous Solubility [26]: 2.3 g %

FC(F)(F)C(F)(F)C(F)(F)C(F)(F)N(C(F)(F)C(F)(F)C(F)(F)C(F)(F)F)C(F)(F)C(F)(F)C(F)(F)C(F)(F)F [Perfluorotributyl amine]
% Retention AHF (AHF [13]): 112% | Percent Removal TNBP [14]: 31% | Percent Removal TRITON X-45 [15]: 0% | Percent Removal TWEEN 80 [16]: 3%

CCCCCCCCCCCO [undecanol]
AHF (% Retention) (AHF [23]): 94% | TRITON X-45 (% Removal) [24]: 100% | Aqueous Solubility [25]: < 0.05 g %

Source: patent US4909940A, “Extraction of process chemicals from labile biological mixtures with organic alcohols or with halogenated hydrocarbons” (priority 1987, dated 1990)
